Experimental data as given in patent US11236086B2, “Substituted pyrrolopyridines as inhibitors of activin receptor-like kinase” (BLUEPRINT MEDICINES CORPORATION, priority 2017, dated 2022).

Assays:
[1] = target: T1, ALK2R206H (mutant ALK2, N-terminally tagged with GST) (Homo sapiens, UniProt Q04771, R206H); test: ALK binding assay (LANTHASCREEN TR-FRET competitive binding, displacement of Kinase Tracer 178); details: read-out: Binding Assay (IC50 class)
T1 construct: purchased Carna Bioscience or ThermoFisher 09-148 or PV6232
T1 sequence (Q04771 21-509 R206H): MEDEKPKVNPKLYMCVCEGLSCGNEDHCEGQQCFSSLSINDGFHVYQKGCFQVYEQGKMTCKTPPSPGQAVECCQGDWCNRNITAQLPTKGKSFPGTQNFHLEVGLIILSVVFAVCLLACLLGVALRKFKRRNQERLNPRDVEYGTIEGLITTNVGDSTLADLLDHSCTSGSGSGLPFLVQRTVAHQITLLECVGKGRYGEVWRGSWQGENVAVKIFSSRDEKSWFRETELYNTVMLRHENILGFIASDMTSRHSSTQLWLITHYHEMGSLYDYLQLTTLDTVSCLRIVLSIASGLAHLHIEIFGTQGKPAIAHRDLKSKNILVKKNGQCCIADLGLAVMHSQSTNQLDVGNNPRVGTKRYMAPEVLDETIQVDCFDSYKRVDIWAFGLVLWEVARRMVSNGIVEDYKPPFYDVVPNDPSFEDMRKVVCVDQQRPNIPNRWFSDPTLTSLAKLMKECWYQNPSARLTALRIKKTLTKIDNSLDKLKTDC
How it was run: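 Competitive displacement of Kinase Tracer 178 (50 nM) from N-terminally GST-tagged mutant ALK2 R206H (2-5 nM) by compound, detected by TR-FRET with Eu-anti-GST antibody (4-10 nM). 30 min room temperature incubation, 1% DMSO final; normalized signal fitted to 4-parameter log dose response for IC50.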

[2] = target: T2, human ALK2 R206H (Homo sapiens, UniProt Q04771, R206H); test: Cell-based ALK2-R206H cell activity assay (Smad1-Ser463/Ser465 phosphorylation by AlphaLISA in HEK293-ALK2-R206H cells); details: phospho-Smad1 AlphaLISA, read-out: Cell Line (Cell Assay, IC50 class)
T2 construct: expressed in transfected cells; host or cells: HEK293 (ATCC CRL1573), lentivirus transduction, blasticidin selection
T2 sequence (Q04771 21-509 R206H): T1 sequence (Q04771 21-509 R206H)
How it was run: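 IC50 comes from a 10-point curve, scaled between DMSO and 1 μM LDN193189 controls, of lysate phospho-Smad1 (Ser463/465) measured by AlphaLISA. Compounds (top 10 μM or 1 μM, 3-fold steps, duplicates) were given 2-3 h to serum-starved HEK293 cells that stably express FLAG-tagged human ALK2 R206H.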

SMILES	IC50 [1] [nM]	IC50 [2] [nM]
CCOC(=O)N1CCN(c2ccnc3[nH]c(-c4ccc([C@]5(O)CCOC5)cc4)cc23)CC1 [Compound 354]	≤ 10	≤ 100
CC1(c2ccc(-c3cc4c(N5CCN(C(=O)C6CC6)CC5)ccnc4[nH]3)cc2)COC1 [Compound 271]	≤ 10	≤ 100
CC(C)(C)c1csc(-c2cc3c(N4CCN(C(=O)OC5COC5)CC4)ccnc3[nH]2)n1 [Compound 372]	≤ 10	≤ 100
CCN1CC[C@@H](c2ccc(-c3cc4c(N5CCN(C(=O)C6CC6)CC5)ccnc4[nH]3)cc2)C(F)(F)C1 [Compound 458]	≤ 10	≤ 100
O=C(OC1COC1)N1CCN(c2ccnc3[nH]c(-c4ccc(C5(O)CCOCC5)cc4)cc23)CC1 [Compound 445]	≤ 10	≤ 100
Cc1cc(-c2cc3c(N4CCN(C(=O)OC5COC5)CC4)ccnc3[nH]2)sn1 [Compound 171]	≤ 10	100 to 500
O=C(C1CC1)N1CCN(c2ccnc3[nH]c(-c4ccc(F)cc4)cc23)CC1 [Compound 19]	≤ 10	100 to 500
CCOC(=O)N1CCN(c2ccnc3[nH]c(-c4cnn(C)c4)cc23)CC1 [Compound 11]	≤ 10	100 to 500
COc1ccc(-c2cc3c(N4CCN(C(=O)[C@H]5CC[C@H](O)CC5)CC4)ccnc3[nH]2)cc1 [Compound 349]	≤ 10	≤ 100
Cn1cc(-c2cc3c(N4CCN(C(=O)CC(F)(F)F)CC4)ccnc3[nH]2)cn1 [Compound 131]	10 to 50	> 500
CCOC(=O)N1CCN(c2ccnc3[nH]c(-c4cnn(CC(C)C#N)c4)cc23)CC1 (centres unmarked) [Compound 214]	≤ 10	100 to 500
O=C(C1CC1)N1CCN(c2ccnc3[nH]c(-c4ccc(C5(O)CCCC5)cc4)cc23)CC1 [Compound 329]	≤ 10	≤ 100
CCOC(=O)N1CCN(c2ccnc3[nH]c(-c4nc(C)cs4)cc23)CC1 [Compound 48]	≤ 10	100 to 500
CC(C)c1ccc(-c2cc3c(N4CCN(C(=O)C5CC5)CC4)ccnc3[nH]2)cc1 [Compound 120]	≤ 10	100 to 500
O=C(OC1COC1)N1CCN(c2ccnc3[nH]c(-c4ccc([C@]5(O)CCOC5)cc4)cc23)CC1 [Compound 429]	≤ 10	≤ 100
CCOC(=O)N1CCN(c2ccnc3[nH]c(-c4ncc(OC)cc4C#N)cc23)CC1 [Compound 204]	≤ 10	100 to 500
O=C(C1CC1)N1CCN(c2ccnc3[nH]c(-c4cnn(Cc5ccccc5)c4)cc23)CC1 [Compound 315]	≤ 10	≤ 100
COc1cccc(-c2cc3c(N4CCN(C(=O)C5CC5)CC4)ccnc3[nH]2)c1 [Compound 59]	≤ 10	100 to 500
C[C@@H](F)COC(=O)N1CCN(c2ccnc3[nH]c(-c4cnn(C)c4)cc23)CC1 [Compound 118]	≤ 10	100 to 500
Cc1c(-c2cc3c(N4CCN(C(=O)[C@H]5CC[C@H](C#N)CC5)CC4)ccnc3[nH]2)cnn1C(C)C [Compound 423]	≤ 10	≤ 100
O=C(C1CC1)N1CCN(c2ccnc3[nH]c(-c4ccc(OCCN5CCCC5)cc4)cc23)CC1 [Compound 421]	≤ 10	≤ 100
O=C(C1CC1)N1CCN(c2ccnc3[nH]c(-c4ccc(C5CCNCC5F)cc4)cc23)CC1 (centres unmarked) [Compound 389]	≤ 10	≤ 100
CC(C)CC(=O)N1CCN(c2ccnc3[nH]c(-c4cnn(C)c4)cc23)CC1 [Compound 32]	10 to 50	100 to 500

The remaining lines, values ahead:

IC50 [1] [nM]	IC50 [2] [nM]	SMILES
≤ 10	≤ 100	CCOC(=O)N1CCN(c2ccnc3[nH]c(-c4cnn(C)c4)c(C)c23)CC1 [Compound 38]
≤ 10	≤ 100	Cn1cc(-c2[nH]c3nccc(N4CCN(C(=O)[C@H]5C[C@@H]5C#N)CC4)c3c2Cl)cn1 [Compound 228]
≤ 10	≤ 100	Cn1cnc(-c2[nH]c3nccc(N4CCN(C(=O)O[C@@H]5CCC5(F)F)CC4)c3c2C#N)c1 [Compound 368]
≤ 10	≤ 100	CCc1nc(-c2cc3c(N4CCN(C(=O)OC5COC5)CC4)ccnc3[nH]2)cs1 [Compound 248]
≤ 10	≤ 100	CN(C)c1nc(-c2cc3c(N4CCN(C(=O)OC5COC5)CC4)ccnc3[nH]2)cn1C [Compound 310]
≤ 10	≤ 100	Cc1nc(-c2cc3c(N4CCN(C(=O)OC5CCC5)CC4)ccnc3[nH]2)cn1C [Compound 139]
≤ 10	≤ 100	Cc1nc(-c2[nH]c3nccc(N4CCN(C(=O)OC5COC5)CC4)c3c2Cl)cs1 [Compound 344]
≤ 10	≤ 100	Cn1cc(-c2[nH]c3nccc(N4CCN(C(=O)[C@H]5CC[C@H](C#N)CC5)CC4)c3c2C#N)cn1 [Compound 374]
≤ 10	≤ 100	CC#Cc1c(-c2cn(C)c(C)n2)[nH]c2nccc(N3CCN(C(=O)OC4COC4)CC3)c12 [Compound 347]
≤ 10	≤ 100	Cn1cnc(-c2cc3c(N4CCN(C(=O)OC5CCC5)CC4)ccnc3[nH]2)c1 [Compound 76]
≤ 10	≤ 100	Cc1nc(-c2[nH]c3nccc(N4CCN(C(=O)O[C@H]5C[C@@H](F)C5)CC4)c3c2C#N)cn1C [Compound 356]
≤ 10	≤ 100	Cc1nc(-c2[nH]c3nccc(N4CCN(C(=O)OC5COC5)CC4)c3c2Cl)cn1C [Compound 331]
≤ 10	≤ 100	CC#Cc1c(-c2cnn(C)c2)[nH]c2nccc(N3CCN(C(=O)OC4COC4)CC3)c12 [Compound 285]
≤ 10	≤ 100	O=C(OC1COC1)N1CCN(c2ccnc3[nH]c(-c4cnn(C(F)F)c4)c(Cl)c23)CC1 [Compound 407]
≤ 10	≤ 100	Cc1nc(-c2[nH]c3nccc(N4CCN(C(=O)OC5COC5)CC4)c3c2C#N)cs1 [Compound 303]
≤ 10	≤ 100	Cn1cc(-c2cc3c(N4CCN(C(=O)O[C@@H]5CC(F)(F)C5(F)F)CC4)ccnc3[nH]2)cn1 [Compound 398]

IC50 [1] [nM]	IC50 [2] [nM]	SMILES
≤ 10	≤ 100	Cn1cc(-c2[nH]c3nccc(N4CCN(C(=O)O[C@@H]5CCC5(F)F)CC4)c3c2C#N)cn1 [Compound 366]
≤ 10	≤ 100	Cn1cnc(-c2cc3c(N4CCN(C(=O)OC5CC5)CC4)ccnc3[nH]2)c1 [Compound 29]
≤ 10	≤ 100	Cn1cc(-c2cc3c(N4CCN(C(=O)O[C@H]5CCC5(F)F)CC4)ccnc3[nH]2)cn1 [Compound 268]
≤ 10	≤ 100	Cc1nc(-c2[nH]c3nccc(N4CCN(C(=O)OC5CCC5(F)F)CC4)c3c2C#N)cn1C (centres unmarked) [Compound 413]
≤ 10	100 to 500	Cn1cc(-c2cc3c(N4CCN(C(=O)O[C@H]5CCOC5)CC4)ccnc3[nH]2)cn1 [Compound 150]
≤ 10	100 to 500	Cn1cc(-c2cc3c(N4CCN(C(=O)OC5COC5)CC4)ccnc3[nH]2)nn1 [Compound 105]
≤ 10	100 to 500	Cc1cnc(-c2cc3c(N4CCN(C(=O)OC5COC5)CC4)ccnc3[nH]2)s1 [Compound 174]
≤ 10	≤ 100	Cn1cnc(-c2[nH]c3nccc(N4CCN(C(=O)OC5CCC5)CC4)c3c2C#N)c1 [Compound 199]
≤ 10	≤ 100	CC(=O)N1CCc2sc(-c3[nH]c4nccc(N5CCN(C(=O)OC6COC6)CC5)c4c3C#N)nc2C1 [Compound 470]
≤ 10	≤ 100	Cc1nc(-c2cc3c(N4CCN(C(=O)O[C@H]5CC(F)(F)C5(F)F)CC4)ccnc3[nH]2)cn1C [Compound 432]
≤ 10	≤ 100	Cc1nn(C(C)C)cc1-c1cc2c(N3CCN(C(=O)OC4COC4)CC3)ccnc2[nH]1 [Compound 304]
≤ 10	≤ 100	Cn1cc(-c2cc3c(N4CCN(C(=O)OC5CCC5(F)F)CC4)ccnc3[nH]2)cn1 (centres unmarked) [Compound 262]
≤ 10	≤ 100	Cn1cc(-c2[nH]c3nccc(N4CCN(C(=O)OC5CCC5)CC4)c3c2Cl)cn1 [Compound 255]
≤ 10	≤ 100	Cn1cc(-c2cc3c(N4CCN(C(=O)OC5CC(F)(F)C5)CC4)ccnc3[nH]2)cn1 [Compound 266]
≤ 10	≤ 100	N#Cc1ccc(-c2cc3c(N4CCN(C(=O)OC5COC5)CC4)ccnc3[nH]2)cc1 [Compound 188]
≤ 10	≤ 100	Cc1nc(-c2cc3c(N4CCN(C(=O)OC5CS(=O)(=O)C5)CC4)ccnc3[nH]2)cs1 [Compound 387]
